In paper PMC5400620, “Preclinical therapeutic efficacy of a novel blood-brain barrier-penetrant dual PI3K/mTOR inhibitor with preferential response in PI3K/PTEN mutant glioma” (Oncotarget, 2017):

How the values were obtained:
U87 GFP-LC3 cells = test: GFP-LC3 puncta detection (autophagy); assay type: cell-based, human; details: TMZ 125 μM, DS 100 nM, control 2%
Text: To investigate the effects of DS, TMZ, or the TMZ/DS combination on autophagy in glioma cells, we transfected cells with GFP-LC3 constructs in addition to various drug treatment and control treatment regimens and examined the accumulation of punctate GFP-LC3 structures using fluorescence microscopy. During autophagy, LC3-II relocalizes to the autophagosomal membranes. Thus, the accumulation of GFP-LC3 puncta provides an effective way to detect autophagosomes. In control cells, GFP-LC3 punctate structures were not detected, but large numbers of GFP-LC3 punctate structures were found in cells treated with DS or TMZ (Figure 5C). […] Strikingly, the combination of DS and TMZ further induced autophagy in up to 50% of U87 cells.
U87 GFP-LC3 cells were analyzed by using a fluorescence microscope, and the percentage of cells displaying GFP-LC3-positive puncta was quantified by counting 5 random fields in 3 independent experiments.

U87 xenografts = test: U87 intracranial xenograft, DS, TMZ or DS + TMZ; details: U87 xenograft-bearing nude mice, TMZ 7.5 mg/kg
Experimental: Data are presented as the mean ± SD of three experiments. […] D, Kaplan–Meier survival curves comparing the treatments using log-rank tests. DS and TMZ were compared with the control group, and DS + TMZ was compared with the control group, TMZ alone, and DS alone. E, Representative H&E-stained whole brain sections at 4 weeks after treatment. […] The tissue sections were incubated with antibodies against Ki-67.
To evaluate the long-term antitumor effect of the TMZ/DS combination, we further assessed the effects of TMZ, DS, or the combination treatment on the survival rate of U87 xenograft-bearing nude mice, which indirectly reflected the survival of tumor-bearing mice relative to their tumor burden.

[1] = system: glioma cell lines U87 and U251; test: cell viability with DS, TMZ and the combination; assay type: cell-based; details: Homo sapiens, U-251, TMZ 200 μM, DS 200 nM, alone or combined
Experimental: To investigate the ability of DS to modify the response of glioma cells to TMZ treatment, we evaluated the effects of TMZ (200 μM) alone, DS (200 nM) alone, and a combination of both TMZ and DS on the viability of the glioma cell lines U87 and U251 (Figure 5A).
The antiproliferative effect of DS on cells growing in culture was determined using the CellTiter-Blue (Promega, Madison, WI) viability assay. The mean drug concentration required to inhibit cell proliferation by 50% (IC50) compared with vehicle-treated controls was calculated using CalcuSyn Version 2.0 software (Great ShelfordCambridge, United Kingdom).

`Cn1nnc2c(C(N)=O)ncn2c1=O` [TMZ, temozolomide, reference compound] was tested, and the “cells with induced autophagy (GFP-LC3 puncta)” value (U87 GFP-LC3 cells) was 10%, the “tumor burden compared with control groups” value (U87 xenografts) was “did not reduce the tumor burden” and the viability at 200 µM [1] was 93%.
